Results from BindingDB's records for PubMed 11082457 (Centre De Recherches De Croissy, 2000).

How the values were obtained:
[1] = target: Sodium-dependent noradrenaline transporter (Homo sapiens, UniProt P23975)
[2] = target: T1, Alpha-2C adrenergic receptor (Rattus norvegicus, UniProt P22086)
T1 sequence (P22086 whole entry): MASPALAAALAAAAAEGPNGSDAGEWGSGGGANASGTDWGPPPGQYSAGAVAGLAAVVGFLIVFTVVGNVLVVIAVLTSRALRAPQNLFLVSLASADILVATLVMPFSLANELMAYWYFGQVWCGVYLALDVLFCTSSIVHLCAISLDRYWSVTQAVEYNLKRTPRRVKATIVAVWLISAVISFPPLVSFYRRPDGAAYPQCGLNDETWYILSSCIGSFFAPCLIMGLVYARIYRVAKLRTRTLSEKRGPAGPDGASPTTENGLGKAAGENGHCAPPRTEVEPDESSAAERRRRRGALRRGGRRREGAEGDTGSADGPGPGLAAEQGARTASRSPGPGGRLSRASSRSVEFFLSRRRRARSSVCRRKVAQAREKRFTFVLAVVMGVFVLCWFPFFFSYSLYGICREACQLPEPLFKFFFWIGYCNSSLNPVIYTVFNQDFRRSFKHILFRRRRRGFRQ

[3] = target: T2, Alpha-1B adrenergic receptor (Homo sapiens, UniProt P35368)
T2 sequence (P35368 whole entry): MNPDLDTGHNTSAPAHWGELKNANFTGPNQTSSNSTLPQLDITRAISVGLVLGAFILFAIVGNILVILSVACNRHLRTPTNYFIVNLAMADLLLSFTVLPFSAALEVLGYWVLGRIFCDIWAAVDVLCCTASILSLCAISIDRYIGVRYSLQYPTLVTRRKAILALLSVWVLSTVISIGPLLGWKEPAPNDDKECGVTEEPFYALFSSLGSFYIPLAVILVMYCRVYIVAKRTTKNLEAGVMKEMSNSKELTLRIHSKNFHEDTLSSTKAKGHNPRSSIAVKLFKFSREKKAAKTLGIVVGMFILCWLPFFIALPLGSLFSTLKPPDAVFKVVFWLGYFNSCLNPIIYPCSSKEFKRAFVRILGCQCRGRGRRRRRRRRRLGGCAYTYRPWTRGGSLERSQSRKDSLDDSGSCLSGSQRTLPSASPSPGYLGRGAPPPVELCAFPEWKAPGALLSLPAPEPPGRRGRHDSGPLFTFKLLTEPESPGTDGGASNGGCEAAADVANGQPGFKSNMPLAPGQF

[4] = target: T3, Amine oxidase [flavin-containing] A (Rattus norvegicus, UniProt P21396)
T3 sequence (P21396 whole entry): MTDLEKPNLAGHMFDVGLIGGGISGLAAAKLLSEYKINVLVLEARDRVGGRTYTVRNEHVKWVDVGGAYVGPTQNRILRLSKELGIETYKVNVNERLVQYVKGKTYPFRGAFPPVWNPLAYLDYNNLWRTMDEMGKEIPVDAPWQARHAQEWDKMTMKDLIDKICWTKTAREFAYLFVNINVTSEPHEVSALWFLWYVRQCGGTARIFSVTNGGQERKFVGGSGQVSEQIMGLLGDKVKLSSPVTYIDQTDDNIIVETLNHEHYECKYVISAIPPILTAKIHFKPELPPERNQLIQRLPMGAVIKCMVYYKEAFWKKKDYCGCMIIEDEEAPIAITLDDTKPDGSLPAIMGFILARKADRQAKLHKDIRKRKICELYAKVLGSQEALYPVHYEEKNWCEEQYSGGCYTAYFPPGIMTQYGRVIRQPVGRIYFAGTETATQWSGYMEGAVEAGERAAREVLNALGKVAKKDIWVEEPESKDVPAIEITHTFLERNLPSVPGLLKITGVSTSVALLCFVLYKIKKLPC

[5] = target: T4, Amine oxidase [flavin-containing] B (Rattus norvegicus, UniProt P19643)
T4 sequence (P19643 whole entry): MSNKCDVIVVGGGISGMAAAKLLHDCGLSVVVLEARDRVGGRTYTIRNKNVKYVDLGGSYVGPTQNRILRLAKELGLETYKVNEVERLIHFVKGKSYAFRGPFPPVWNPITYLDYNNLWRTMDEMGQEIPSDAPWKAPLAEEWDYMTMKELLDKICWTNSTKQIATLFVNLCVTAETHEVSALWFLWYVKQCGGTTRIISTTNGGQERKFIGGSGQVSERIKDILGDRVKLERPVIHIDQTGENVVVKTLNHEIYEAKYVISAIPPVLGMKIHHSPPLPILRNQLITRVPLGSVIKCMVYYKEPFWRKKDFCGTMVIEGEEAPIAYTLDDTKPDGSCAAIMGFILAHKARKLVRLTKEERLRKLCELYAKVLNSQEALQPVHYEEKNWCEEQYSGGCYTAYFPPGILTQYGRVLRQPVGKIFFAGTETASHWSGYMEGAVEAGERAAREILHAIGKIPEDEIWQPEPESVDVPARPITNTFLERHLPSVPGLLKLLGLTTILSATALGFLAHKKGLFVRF

[6] = target: T5, Alpha-1B adrenergic receptor (Rattus norvegicus, UniProt P15823)
T5 sequence (P15823 whole entry): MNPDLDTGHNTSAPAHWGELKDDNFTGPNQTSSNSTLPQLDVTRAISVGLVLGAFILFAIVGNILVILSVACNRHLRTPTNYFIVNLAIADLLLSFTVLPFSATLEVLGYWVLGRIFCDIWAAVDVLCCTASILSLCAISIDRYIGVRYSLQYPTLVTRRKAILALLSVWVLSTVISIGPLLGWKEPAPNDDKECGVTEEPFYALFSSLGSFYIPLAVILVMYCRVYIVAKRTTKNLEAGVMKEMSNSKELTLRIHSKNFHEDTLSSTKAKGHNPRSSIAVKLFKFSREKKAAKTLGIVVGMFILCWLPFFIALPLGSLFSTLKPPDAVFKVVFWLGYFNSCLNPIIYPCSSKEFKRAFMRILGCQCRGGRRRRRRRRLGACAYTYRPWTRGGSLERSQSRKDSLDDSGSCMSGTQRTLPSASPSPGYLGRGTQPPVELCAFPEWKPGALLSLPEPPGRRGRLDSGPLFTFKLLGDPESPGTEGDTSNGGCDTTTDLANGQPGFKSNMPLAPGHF

Sodium-dependent noradrenaline transporter, sequence (P23975 whole entry): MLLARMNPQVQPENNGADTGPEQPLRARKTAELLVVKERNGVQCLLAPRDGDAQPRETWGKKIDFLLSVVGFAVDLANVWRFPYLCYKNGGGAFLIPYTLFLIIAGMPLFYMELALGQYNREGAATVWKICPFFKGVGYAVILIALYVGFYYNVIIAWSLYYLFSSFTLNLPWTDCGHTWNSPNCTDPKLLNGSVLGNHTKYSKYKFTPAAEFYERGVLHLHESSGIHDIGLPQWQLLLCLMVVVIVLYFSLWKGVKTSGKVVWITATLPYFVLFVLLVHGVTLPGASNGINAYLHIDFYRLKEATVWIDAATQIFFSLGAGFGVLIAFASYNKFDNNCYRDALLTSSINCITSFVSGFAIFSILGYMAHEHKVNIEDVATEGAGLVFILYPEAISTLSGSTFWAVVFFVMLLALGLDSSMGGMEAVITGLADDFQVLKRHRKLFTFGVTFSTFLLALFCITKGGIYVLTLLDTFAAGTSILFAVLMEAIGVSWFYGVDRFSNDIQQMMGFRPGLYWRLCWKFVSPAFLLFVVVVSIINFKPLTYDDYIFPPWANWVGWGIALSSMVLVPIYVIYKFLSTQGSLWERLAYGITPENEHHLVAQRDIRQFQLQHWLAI

NC1=NC2(CCc3ccccc3C2)CO1 (configuration not stated) [S18616]
Ki [1]: 1000 nM
Ki [2]: 0.159 nM
Ki [3]: 20 nM
Ki [4]: 1000 nM
Ki [5]: 1000 nM
Ki [6]: 100 nM

Cc1cccc([C@@H](C)c2cnc[nH]2)c1C
Ki [1]: 1000 nM
Ki [2]: 1 nM
Ki [3]: 316 nM
Ki [4]: 1000 nM
Ki [5]: 1000 nM
Ki [6]: 316 nM
